Experimental data as given in ChEMBL document CHEMBL1201862, “PubChem BioAssay data set” (2004).
The source made the active and inactive calls.

Columns and labels:
[1] = target: Dual specificity protein kinase CLK4 (Homo sapiens, UniProt Q9HAZ1); type: functional
[2] = target: G protein-coupled receptor kinase 5 (Homo sapiens, UniProt P34947); experiment: Navigating the Kinome. Panel member name: GPRK5; type: functional
[3] = target: Tyrosine-protein kinase receptor TYRO3 (Homo sapiens, UniProt Q06418); type: functional;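 note: TYRO3 value obtained as one member of a kinome-wide profiling panel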
[4] = target: Mitogen-activated protein kinase 14 (Homo sapiens, UniProt Q16539); type: functional;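 note: part of a kinome-wide panel, MAPK14 entry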
[5] = target: Cyclin-dependent kinase 7 (Homo sapiens, UniProt P50613); type: functional;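 note: value comes from a kinome-wide kinase profiling panel in which CDK7 is one member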
[6] = target: Activated CDC42 kinase 1 (Homo sapiens, UniProt Q07912); experiment: Navigating the Kinome. Panel member name: ACK1; type: functional
[7] = target: T1, Hexokinase HKDC1 (Homo sapiens, UniProt Q2TB90); experiment: HKDC1 hexokinase inhibitors, dose response, biochemical, W721R variant (AID 504729); type: functional
T1 sequence (Q2TB90 whole entry): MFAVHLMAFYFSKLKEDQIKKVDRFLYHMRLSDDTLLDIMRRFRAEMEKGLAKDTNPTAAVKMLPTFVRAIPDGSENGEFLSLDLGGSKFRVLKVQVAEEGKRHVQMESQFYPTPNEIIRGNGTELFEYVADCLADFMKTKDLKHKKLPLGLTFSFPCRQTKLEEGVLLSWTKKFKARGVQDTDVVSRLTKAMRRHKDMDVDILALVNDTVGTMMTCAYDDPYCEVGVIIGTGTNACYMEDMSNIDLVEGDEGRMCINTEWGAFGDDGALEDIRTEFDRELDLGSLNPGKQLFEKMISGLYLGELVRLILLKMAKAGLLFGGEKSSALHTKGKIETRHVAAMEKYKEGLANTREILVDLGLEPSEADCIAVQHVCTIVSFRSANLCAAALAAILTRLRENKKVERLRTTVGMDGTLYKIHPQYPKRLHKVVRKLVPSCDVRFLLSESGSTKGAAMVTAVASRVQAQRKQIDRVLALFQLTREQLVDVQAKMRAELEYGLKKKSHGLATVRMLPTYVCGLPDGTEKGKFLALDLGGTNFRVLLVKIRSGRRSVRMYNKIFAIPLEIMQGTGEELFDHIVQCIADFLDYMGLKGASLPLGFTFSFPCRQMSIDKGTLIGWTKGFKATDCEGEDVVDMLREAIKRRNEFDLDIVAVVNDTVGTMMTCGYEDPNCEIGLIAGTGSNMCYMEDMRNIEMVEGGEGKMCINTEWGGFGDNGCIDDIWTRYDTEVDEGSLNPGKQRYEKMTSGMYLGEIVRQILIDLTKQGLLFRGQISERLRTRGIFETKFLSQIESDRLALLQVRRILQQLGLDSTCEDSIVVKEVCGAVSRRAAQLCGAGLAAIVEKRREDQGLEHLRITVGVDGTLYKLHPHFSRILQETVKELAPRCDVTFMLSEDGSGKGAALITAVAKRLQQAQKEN

[8] = target: T2, Streptokinase A (Streptococcus pyogenes serotype M1, UniProt P10520); experiment: S. pyogenes streptokinase expression inhibitors, potency, dose response, plasminogen activation absorbance, OD405 (AID 1914); type: functional, Streptococcus pyogenes M1 GAS;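 note: secreted streptokinase activity via plasminogen activation per viability signal from cell pellet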
T2 sequence (P10520 whole entry): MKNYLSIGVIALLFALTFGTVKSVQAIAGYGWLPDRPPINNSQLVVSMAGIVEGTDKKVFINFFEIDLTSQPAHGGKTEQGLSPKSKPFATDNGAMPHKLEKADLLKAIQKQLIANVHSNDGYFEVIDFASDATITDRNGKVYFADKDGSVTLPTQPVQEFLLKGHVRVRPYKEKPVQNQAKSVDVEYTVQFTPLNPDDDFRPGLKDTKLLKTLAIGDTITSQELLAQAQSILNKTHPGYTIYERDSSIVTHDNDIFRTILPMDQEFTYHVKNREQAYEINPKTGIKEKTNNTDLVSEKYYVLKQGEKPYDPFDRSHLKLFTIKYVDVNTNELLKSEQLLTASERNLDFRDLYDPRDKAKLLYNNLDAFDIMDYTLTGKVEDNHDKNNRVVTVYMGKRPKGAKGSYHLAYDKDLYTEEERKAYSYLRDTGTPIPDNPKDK

[9] = target: Vascular endothelial growth factor receptor 3 (Homo sapiens, UniProt P35916); type: functional;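 note: value from a kinome-wide profiling panel, with FLT4 as the panel member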
[10] = target: Serine/threonine-protein kinase PLK1 (Homo sapiens, UniProt P53350); type: functional;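 note: PLK1 measured as one member of a kinome-wide profiling panel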
[11] = target: Phosphorylase b kinase gamma catalytic chain, liver/testis isoform (Homo sapiens, UniProt P15735); type: functional;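 note: PHKG2 measured as one member of a kinome-wide kinase panel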
[12] = target: Serine/threonine-protein kinase PAK 1 (Homo sapiens, UniProt Q13153); type: functional
[13] = target: Tyrosine-protein kinase Srms (Homo sapiens, UniProt Q9H3Y6); type: functional;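 note: SRMS measured as one member of a kinome-wide kinase profiling panel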
[14] = target: Receptor-type tyrosine-protein kinase FLT3 (Homo sapiens, UniProt P36888); type: functional;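 note: FLT3 was tested as one member of a kinome-wide kinase panel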
[15] = target: Mitogen-activated protein kinase 13 (Homo sapiens, UniProt O15264); type: functional
[16] = target: Calcium/calmodulin-dependent protein kinase type 1 (Homo sapiens, UniProt Q14012); type: functional
[17] = target: Casein kinase I isoform gamma-1 (Homo sapiens, UniProt Q9HCP0); type: functional;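 note: measured as the CSNK1G1 member of a kinome profiling panel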
[18] = target: Mitogen-activated protein kinase kinase kinase 20 (Homo sapiens, UniProt Q9NYL2); type: functional
[19] = target: RAC-gamma serine/threonine-protein kinase (Homo sapiens, UniProt Q9Y243); type: functional
[20] = target: Maternal embryonic leucine zipper kinase (Homo sapiens, UniProt Q14680); type: functional
[21] = target: Serine/threonine-protein kinase 3 (Homo sapiens, UniProt Q13188); type: functional;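 note: measured as one member of a kinome-wide kinase panel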
[22] = target: Tyrosine-protein kinase ITK/TSK (Homo sapiens, UniProt Q08881); type: functional;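 note: affinity for ITK measured as one member of a broad kinase panel profiling binding across the kinome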
[23] = target: Interleukin-1 receptor-associated kinase 1 (Homo sapiens, UniProt P51617); type: functional;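 note: IRAK1 tested as one member of a kinome panel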
[24] = target: MAP kinase-activated protein kinase 3 (Homo sapiens, UniProt Q16644); type: functional;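 note: value comes from a kinome-wide profiling panel in which MAPKAPK3 is one of the panel members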
[25] = nonselective inhibitors of cellular cAMP signaling, dose response, counter-screen for MC4R biased antagonist project, cell-based, TR-FRET cAMP detection (AID 602305); type: functional;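 note: U2OS cells stimulated with forskolin near its EC80 as the cAMP inducer; potency is for inhibition of forskolin-stimulated cAMP signaling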
[26] = target: CAAX prenyl protease 2 (Homo sapiens, UniProt Q9Y256); experiment: human Rce1 protease inhibitors, dose response, biochemical, yeast membranes, quenched-peptide fluorescence, cherry-pick (AID 588849)
Sequence of CAAX prenyl protease 2 (Q9Y256 whole entry): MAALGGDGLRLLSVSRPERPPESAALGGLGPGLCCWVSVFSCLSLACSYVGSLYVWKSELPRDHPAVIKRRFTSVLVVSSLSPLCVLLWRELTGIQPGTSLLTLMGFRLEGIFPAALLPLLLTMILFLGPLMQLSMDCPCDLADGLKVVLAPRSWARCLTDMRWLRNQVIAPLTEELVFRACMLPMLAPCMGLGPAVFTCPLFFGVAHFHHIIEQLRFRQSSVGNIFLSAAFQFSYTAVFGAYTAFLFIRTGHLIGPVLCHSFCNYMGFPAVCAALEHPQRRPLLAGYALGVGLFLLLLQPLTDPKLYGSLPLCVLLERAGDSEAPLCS

Sequence of Tyrosine-protein kinase receptor TYRO3 (Q06418 whole entry): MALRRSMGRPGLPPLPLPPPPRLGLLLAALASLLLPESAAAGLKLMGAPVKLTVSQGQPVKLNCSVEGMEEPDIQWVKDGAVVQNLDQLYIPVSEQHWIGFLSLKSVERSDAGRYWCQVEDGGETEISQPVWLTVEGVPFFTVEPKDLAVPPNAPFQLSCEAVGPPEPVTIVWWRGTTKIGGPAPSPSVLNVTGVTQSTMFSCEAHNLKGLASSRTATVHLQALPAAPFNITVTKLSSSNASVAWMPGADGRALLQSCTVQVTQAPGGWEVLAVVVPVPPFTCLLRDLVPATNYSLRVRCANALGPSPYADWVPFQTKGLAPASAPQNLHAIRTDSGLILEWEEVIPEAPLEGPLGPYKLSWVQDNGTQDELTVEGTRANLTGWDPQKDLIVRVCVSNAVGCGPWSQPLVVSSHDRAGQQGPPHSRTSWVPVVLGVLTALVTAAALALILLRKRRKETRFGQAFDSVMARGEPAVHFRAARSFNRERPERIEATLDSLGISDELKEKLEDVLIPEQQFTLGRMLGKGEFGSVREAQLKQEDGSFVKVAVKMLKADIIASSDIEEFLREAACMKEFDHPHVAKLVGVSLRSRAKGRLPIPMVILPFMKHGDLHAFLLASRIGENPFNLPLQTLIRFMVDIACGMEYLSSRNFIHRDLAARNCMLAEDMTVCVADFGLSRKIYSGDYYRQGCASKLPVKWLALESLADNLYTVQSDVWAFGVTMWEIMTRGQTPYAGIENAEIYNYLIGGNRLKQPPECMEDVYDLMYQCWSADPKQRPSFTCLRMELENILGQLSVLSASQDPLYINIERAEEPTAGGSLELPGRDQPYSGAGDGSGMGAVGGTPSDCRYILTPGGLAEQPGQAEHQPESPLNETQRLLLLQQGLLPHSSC
Sequence of G protein-coupled receptor kinase 5 (P34947 whole entry): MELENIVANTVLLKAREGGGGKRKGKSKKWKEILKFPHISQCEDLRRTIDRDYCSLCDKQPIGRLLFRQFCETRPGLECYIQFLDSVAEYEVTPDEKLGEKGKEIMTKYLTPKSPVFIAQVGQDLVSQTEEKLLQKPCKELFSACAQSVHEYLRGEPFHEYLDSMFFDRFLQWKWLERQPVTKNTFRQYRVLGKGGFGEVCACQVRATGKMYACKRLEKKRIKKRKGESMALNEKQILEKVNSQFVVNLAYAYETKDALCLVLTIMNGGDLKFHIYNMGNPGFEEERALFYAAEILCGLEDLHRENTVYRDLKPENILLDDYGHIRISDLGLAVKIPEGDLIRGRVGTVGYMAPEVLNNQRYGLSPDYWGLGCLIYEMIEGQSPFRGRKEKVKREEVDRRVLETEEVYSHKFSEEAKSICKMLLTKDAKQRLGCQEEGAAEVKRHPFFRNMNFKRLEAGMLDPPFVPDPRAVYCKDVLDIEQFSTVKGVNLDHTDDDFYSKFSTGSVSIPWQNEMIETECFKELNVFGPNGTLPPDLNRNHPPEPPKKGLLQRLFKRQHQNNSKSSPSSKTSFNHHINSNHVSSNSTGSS
Sequence of RAC-gamma serine/threonine-protein kinase (Q9Y243 whole entry): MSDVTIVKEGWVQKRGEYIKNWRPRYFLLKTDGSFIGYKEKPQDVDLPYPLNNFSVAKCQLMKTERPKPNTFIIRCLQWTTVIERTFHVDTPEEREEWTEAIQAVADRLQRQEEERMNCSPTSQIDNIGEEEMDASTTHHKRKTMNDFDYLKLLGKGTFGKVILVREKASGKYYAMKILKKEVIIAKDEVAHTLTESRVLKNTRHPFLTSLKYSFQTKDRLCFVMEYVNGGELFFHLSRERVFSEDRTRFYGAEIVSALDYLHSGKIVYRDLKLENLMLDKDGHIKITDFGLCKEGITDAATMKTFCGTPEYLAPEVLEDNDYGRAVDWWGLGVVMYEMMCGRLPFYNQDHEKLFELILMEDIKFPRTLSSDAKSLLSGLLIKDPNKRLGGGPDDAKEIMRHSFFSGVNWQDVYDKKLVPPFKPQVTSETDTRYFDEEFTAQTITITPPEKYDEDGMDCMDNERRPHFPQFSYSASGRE
Sequence of Serine/threonine-protein kinase 3 (Q13188 whole entry): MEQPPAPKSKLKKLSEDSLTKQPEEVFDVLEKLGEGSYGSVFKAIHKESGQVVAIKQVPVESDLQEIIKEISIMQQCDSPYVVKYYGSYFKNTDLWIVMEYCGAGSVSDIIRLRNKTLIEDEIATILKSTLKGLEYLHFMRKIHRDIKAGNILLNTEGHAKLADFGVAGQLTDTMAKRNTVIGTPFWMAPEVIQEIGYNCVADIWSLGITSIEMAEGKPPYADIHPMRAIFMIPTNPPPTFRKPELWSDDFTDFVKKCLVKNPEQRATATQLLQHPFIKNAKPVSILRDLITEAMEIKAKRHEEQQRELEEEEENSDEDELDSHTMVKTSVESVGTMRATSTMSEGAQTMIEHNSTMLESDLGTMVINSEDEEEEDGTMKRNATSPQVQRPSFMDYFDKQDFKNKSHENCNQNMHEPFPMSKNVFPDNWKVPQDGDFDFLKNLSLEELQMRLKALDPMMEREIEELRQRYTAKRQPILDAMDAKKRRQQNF
Sequence of Mitogen-activated protein kinase 14 (Q16539 whole entry): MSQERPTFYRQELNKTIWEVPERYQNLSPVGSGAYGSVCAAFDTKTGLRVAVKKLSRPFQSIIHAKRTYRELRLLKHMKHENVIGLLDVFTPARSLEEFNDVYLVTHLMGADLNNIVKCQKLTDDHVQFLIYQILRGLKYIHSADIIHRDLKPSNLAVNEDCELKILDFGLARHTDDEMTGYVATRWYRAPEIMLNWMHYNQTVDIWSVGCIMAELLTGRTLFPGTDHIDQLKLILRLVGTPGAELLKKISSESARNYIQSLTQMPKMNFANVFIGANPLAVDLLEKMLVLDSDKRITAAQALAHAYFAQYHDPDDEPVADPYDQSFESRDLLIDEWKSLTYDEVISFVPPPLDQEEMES
Sequence of Mitogen-activated protein kinase kinase kinase 20 (Q9NYL2 whole entry): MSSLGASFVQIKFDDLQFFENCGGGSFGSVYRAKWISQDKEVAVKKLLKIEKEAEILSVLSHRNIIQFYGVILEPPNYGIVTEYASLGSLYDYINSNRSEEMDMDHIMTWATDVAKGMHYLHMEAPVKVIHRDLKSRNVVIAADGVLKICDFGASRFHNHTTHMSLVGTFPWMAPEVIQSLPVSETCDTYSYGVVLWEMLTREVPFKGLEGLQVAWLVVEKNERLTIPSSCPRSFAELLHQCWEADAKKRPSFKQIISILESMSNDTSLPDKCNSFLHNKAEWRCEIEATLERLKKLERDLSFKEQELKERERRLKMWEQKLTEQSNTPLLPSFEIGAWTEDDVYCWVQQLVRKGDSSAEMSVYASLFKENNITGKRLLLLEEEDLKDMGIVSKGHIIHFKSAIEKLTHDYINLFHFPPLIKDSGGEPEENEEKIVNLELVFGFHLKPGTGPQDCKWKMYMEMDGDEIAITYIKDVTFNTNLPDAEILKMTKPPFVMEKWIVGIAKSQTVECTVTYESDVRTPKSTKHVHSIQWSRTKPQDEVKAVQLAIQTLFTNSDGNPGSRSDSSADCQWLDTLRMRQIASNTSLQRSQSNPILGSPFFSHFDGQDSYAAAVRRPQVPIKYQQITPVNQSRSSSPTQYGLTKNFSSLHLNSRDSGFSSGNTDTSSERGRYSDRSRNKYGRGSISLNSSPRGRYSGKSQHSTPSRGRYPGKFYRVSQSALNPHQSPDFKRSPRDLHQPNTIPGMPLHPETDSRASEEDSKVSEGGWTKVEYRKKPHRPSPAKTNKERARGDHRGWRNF
Sequence of Interleukin-1 receptor-associated kinase 1 (P51617 whole entry): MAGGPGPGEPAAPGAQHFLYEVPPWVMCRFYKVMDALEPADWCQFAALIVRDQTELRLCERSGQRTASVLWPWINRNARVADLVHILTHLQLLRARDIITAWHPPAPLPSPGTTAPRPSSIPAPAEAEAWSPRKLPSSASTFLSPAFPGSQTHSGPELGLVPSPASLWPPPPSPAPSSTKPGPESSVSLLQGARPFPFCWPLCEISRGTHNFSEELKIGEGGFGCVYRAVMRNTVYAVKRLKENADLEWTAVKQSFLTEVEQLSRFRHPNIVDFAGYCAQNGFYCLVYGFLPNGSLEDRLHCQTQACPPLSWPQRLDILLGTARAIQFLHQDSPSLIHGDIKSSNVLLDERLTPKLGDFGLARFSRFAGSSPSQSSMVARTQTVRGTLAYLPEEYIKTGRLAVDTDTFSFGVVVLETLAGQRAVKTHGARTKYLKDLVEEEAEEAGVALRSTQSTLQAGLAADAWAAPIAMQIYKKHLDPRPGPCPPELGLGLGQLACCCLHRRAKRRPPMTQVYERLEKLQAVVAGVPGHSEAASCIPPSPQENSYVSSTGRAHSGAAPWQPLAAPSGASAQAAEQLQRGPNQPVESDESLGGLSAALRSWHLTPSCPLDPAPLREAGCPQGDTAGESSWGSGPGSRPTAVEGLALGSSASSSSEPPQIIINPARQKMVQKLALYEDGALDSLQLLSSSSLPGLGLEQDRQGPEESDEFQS
Sequence of Calcium/calmodulin-dependent protein kinase type 1 (Q14012 whole entry, canonical isoform): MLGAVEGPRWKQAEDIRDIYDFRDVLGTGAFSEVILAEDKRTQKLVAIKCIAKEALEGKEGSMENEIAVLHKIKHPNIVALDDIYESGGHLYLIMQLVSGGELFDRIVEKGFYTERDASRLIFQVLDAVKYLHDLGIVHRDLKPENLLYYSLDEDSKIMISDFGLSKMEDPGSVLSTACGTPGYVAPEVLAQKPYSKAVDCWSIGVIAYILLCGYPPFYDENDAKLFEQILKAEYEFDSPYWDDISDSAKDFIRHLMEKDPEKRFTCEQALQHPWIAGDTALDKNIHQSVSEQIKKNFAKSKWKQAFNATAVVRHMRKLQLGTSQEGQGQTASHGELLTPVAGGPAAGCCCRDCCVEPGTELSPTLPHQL

## CCn1c(-c2nonc2N)nc2cncc(C(=O)N3CCC(N)C3)c21 (stereo not drawn)
[1]
  Ki: 63.1 nM (active)
[2]
  Ki: 3980 nM (active)
[3]
  Ki: > 3160 nM (inactive)
[4]
  Ki: > 3980 nM (inactive)
[5]
  Ki: 2510 nM (active)
[6]
  Ki: > 3980 nM (inactive)

## COC(=O)c1ccccc1NC1=C/C(=N\S(=O)(=O)c2cccs2)c2ccccc2C1=O
[7]
  IC50: 27500 nM (inactive)

## Cc1cc(C)c[n+](C2=C([N-]S(=O)(=O)c3cccs3)C(=O)c3ccccc3C2=O)c1
[8]
  EC50: > 150000 nM (not active)

## Cc1[nH]nc2ccc(-c3cncc(OCC(N)Cc4c[nH]c5ccccc45)c3)cc12 (stereo not drawn)
[9]
  Ki: 1580 nM (active)
[10]
  Ki: > 7940 nM (inactive)
[11]
  Ki: 1000 nM (active)
[12]
  Ki: 1260 nM (active)
[13]
  Ki: > 1580 nM (inactive)
[14]
  Ki: 316 nM (active)
[3]
  Ki: > 2000 nM (inactive)
[15]
  Ki: 1580 nM (active)
[16]
  Ki: > 7940 nM (inactive)
[17]
  Ki: 39.8 nM (active)
[18]
  Ki: > 7940 nM (inactive)
[19]
  Ki: 6.31 nM (active)
[20]
  Ki: 316 nM (active)
[21]
  Ki: 50.1 nM (active)
[22]
  Ki: > 1580 nM (inactive)
[23]
  Ki: 251 nM (active)
[24]
  Ki: > 10000 nM (inactive)

## CCCCCCCCCCC[N+](C)(C)CC/C=C1/c2ccccc2Sc2ccc(Cl)cc21
[25]
  IC50: 25900 nM (inactive)
[8]
  EC50: 8220 nM (active)
[26]
  AC50: 58400 nM (active)
